Results published in patent publication US20180087023A1, “METHOD OF PRODUCING BIOPRODUCTS” (White Dog Labs, Inc., priority 2015, published 2018).

Key:
[1] = Single-stage extraction of 2% aqueous bioproduct solutions with extractant (Examples 1-9); type: physicochemical; settings: for Raffinate Bioproduct conc. (%) / Extract Bioproduct conc. (%): 100 g of 2% aqueous solution mixed with 100 g extractant of 80% 1-butene + 20% DME; for Raffinate Bioproduct conc. (%): raffinate phase; for Extract Bioproduct conc. (%): pressure vessel, extract phase; for DC (bioproduct distribution coefficient): extract/raffinate, extractant 80% 1-butene + 20% DME, ambient temperature (Table 1); for Distribution coefficient, 100% DME: extractant 100% DME (Table 2)
Protocol: Extraction of various bioproducts with an extractant composed of 80% 1-butene and 20% dimethylether (DME) 100 grams (g) of aqueous solutions of various bioproducts were prepared. Bioproduct initial concentration was 2%. Each of these bioproduct aqueous solutions was extracted in a pressure vessel by mixing with 100 g of extractant composed of 80% 1-butene (the hydrocarbon) and 20% dimethylether (the oxygenated compound) at ambient temperature. The amount of formed extract and formed raffinate and the concentration (conc.) of the bioproduct in each were determined. Theses concentrations were used to calculate the bioproduct distribution coefficient (DC). Also determined was the concentration of DME in the raffinate. Table 2 compares the found distribution coefficients to those of extracting with an extractant composed of 100% DME.

[2] = Effect of DME/1-butene ratio in the extractant on n-butanol extraction (Example 10); type: physicochemical; settings: after extracting 2% n-butanol solution, 1:1 w/w, room temperature
Protocol: Extractant to aqueous solution weight/weight ratio was 1 to 1. Distribution coefficients, extractant concentration in the raffinate and extraction yield (single stage extraction at the selected extractant/aqueous solution weight/weight ratio) were determined and are summarized in Table 3.

O=C(O)CCCC(=O)O [Glutaric Acid]
Raffinate Bioproduct conc. (%) ([1]; ambient temperature): 1.37%
Extract Bioproduct conc. (%) ([1]; ambient temperature): 0.56%
DC (bioproduct distribution coefficient) [1]: 0.43
Distribution coefficient, 100% DME [1]: 1.88

CCCC=O [Butanal]
Raffinate Bioproduct conc. (%) ([1]; ambient temperature): 0.26%
Extract Bioproduct conc. (%) ([1]; ambient temperature): 1.85%
DC (bioproduct distribution coefficient) [1]: 7.16
Distribution coefficient, 100% DME [1]: 5.11

O=Cc1ccco1 [Furfural]
Raffinate Bioproduct conc. (%) ([1]; ambient temperature): 0.46%
Extract Bioproduct conc. (%) ([1]; ambient temperature): 0.162%
DC (bioproduct distribution coefficient) [1]: 3.54
Distribution coefficient, 100% DME [1]: 3.79

CCCC(=O)OC [Methyl Butyrate]
Raffinate Bioproduct conc. (%) ([1]; ambient temperature): 0.034%
Extract Bioproduct conc. (%) ([1]; ambient temperature): 2.12%
DC (bioproduct distribution coefficient) [1]: 61.1
Distribution coefficient, 20% DME + 80% 1-Butene ([1]; extractant 20% DME + 80% 1-butene (Table 2)): 61.14
Distribution coefficient, 100% DME [1]: 20.73

CCCC(C)=O [2-Pentanone]
Raffinate Bioproduct conc. (%) ([1]; ambient temperature): 0.22%
Extract Bioproduct conc. (%) ([1]; ambient temperature): 1.89%
DC (bioproduct distribution coefficient) [1]: 8.45
Distribution coefficient, 100% DME [1]: 5.82

O=C(O)CCC(=O)O [Succinic Acid]
Raffinate Bioproduct conc. (%) ([1]; ambient temperature): 1.66%
Extract Bioproduct conc. (%) ([1]; ambient temperature): 0.22%
DC (bioproduct distribution coefficient) [1]: 0.13
Distribution coefficient, 100% DME [1]: 1.01

CCC(=O)O [Propionic Acid]
Raffinate Bioproduct conc. (%) ([1]; ambient temperature): 0.92%
Extract Bioproduct conc. (%) ([1]; ambient temperature): 1.09%
DC (bioproduct distribution coefficient) [1]: 1.18
Distribution coefficient, 100% DME [1]: 2.27

COC [DME, dimethylether, reference compound]
Raffinate DME conc. (%) ([1]; DME in raffinate after extracting each 2% bioproduct solution with 80% 1-butene + 20% DME, ambient temperature): 4.5%
Wt % Extractant in Raffinate [2]: 31.0%

O=C1CCCO1 [Gamma Butyrolactone]
Raffinate Bioproduct conc. (%) ([1]; ambient temperature): 0.37%
Extract Bioproduct conc. (%) ([1]; ambient temperature): 0.172%
DC (bioproduct distribution coefficient) [1]: 4.63
Distribution coefficient, 100% DME [1]: 3.14
